{"source": "paper PMC5464911", "about": "“SEL120-34A is a novel CDK8 inhibitor active in AML cells with high levels of serine phosphorylation of STAT1 and STAT5 transactivation domains” (Oncotarget, 2017)", "system": "EGR1 and FOS mRNA", "assay": "Serum-induced immediate early response gene expression in HCT-116 cells (qRT-PCR)", "format": "cell-based", "conditions": "quiescent HCT-116 cells, 2 hours with 1 μM, then FBS time-course", "protocol": "(B) SEL120-34A inhibits IFN-dependent phosphorylation of STAT1 S727. HCT-116 cells stimulated with IFNg for 4 h were treated with increasing doses of SEL120-34A, Flavopiridol (F) or vehicle DMSO (C) to determine changes in the phosphorylation of STAT1 S727 and Y701, as measured by WB. (*) unspecific band. (C) SEL120-34A inhibits serine phosphorylation of STAT1 S727 and STAT5 S726, whereas Ruxolitinib inhibits tyrosine phosphorylation of STAT1 Y701 and STAT5 Y694 in JAK2 V617F cells. SET-2 cells were treated with Ruxolitinib, SEL120-34A or vehicle DMSO (C) for 24 hours and protein levels of pS727, pY701 STAT1 and pS726, pY694 STAT5 were measured by WB. […]\n[…]", "data": [{"smiles": "Cc1c(Br)c(Br)c2c3c1nc(N1CCNCC1)n3CCC2", "note": "[SEL120-34A]", "values": [{"measurement": "inducible expression of IER genes EGR1 and FOS", "result": "substantially repressed"}]}]}
